These results are taken from patent US12365692B2, “6-hydroxy-8-oxatricyclo[3.2.1.02,4]octane-2-carboxamide derivatives for inducing chondrogenesis for treating joint damage” (NOVARTIS AG, priority 2018, dated 2025).

As a reminder, the IC50 is the midpoint of a concentration-inhibition curve. Low values mean inhibition by little substance, high ones a need for much substance.

The assay relates to ALP in NHAC (normal human articular chondrocytes). Kind of assay: Alkaline Phosphatase (ALP) activity assay: ALP staining and quantitation in NHACs (prevention of chondrocyte hypertrophy). It counts as cell-based. The following applies: Chondrocyte, 288 h, human IL-1 beta 10 ng/mL, 12 days; for IC50: Fast Blue RR staining, high content imaging; for Emax: read-out: ALP in NHAC (% Efficacy). As for the experimental part: The compounds of the present invention were evaluated in the Alkaline Phosphatase (ALP) activity assay to determine the ability of the compounds to prevent chondrocyte hypertrophy in normal human articular chondrocytes (NHACs).
Normal human articular chondrocytes (NHACs) were purchased from PromoCell (Heidelberg, Germany) and grown in Chondrocyte Growth Medium (CGM; Lonza, Walkersville, Md.).
NHACs were expanded in Chondrocyte Growth Medium (CGM) from Lonza until they reached a 60-80% confluency. To initiate differentiation, 7,500 cells were plated/well with indicated test compound dose in 384-well Cell Carrier Ultra plates (Perkin Elmer) with DMEM (SH30022—HyClone) containing 10% FBS (35-015-CV—Corning), 1% Pen/Strep antibiotics (SV30010—HyClone), and 1% Normocin (50 mg/mL—InvivoGen). Cells with test compounds were incubated at 37° C., 5% CO2 for 5 hours and then added human IL-1 beta (AF-200-1B—Peprotech) to each well at a final concentration of 10 ng/mL and incubated at 37° C., 5% CO2 for 12 days.
To detect the presence of hypertrophic cells, NHACs were fixed with 4% paraformaldehyde and Hoechst 33342 (Invitrogen) dye for 30 minutes, rinsed in PBS, then stained with Fast Blue RR Salt (F0500—Sigma) with Naphthol AS-MX Phosphate Alkaline Solution, 0.25% (855—Sigma-Aldrich).
The staining was imaged by fluoresecent microscopy, using the 561 nm wavelength, and/or quantified by high content imaging with the ImageXpress Confocal (Molecular Devices, Sunnyvale, CA). Data analyses were performed with a customized multiwavelength cell-scoring application The activity of the compounds of the present invention in the ALP assay is summarized in Table 2.

The structures appear in SMILES notation. A value given as a limit tells only on which side of the number the result lay.

Take `Cn1cc([C@@]23C[C@]2(C(=O)Nc2ccc(C(F)(F)F)c(F)c2)[C@H]2C[C@H](O)[C@@H]3O2)c(C(F)(F)F)n1` (racemic) [Example 41, rac-(1R,2R,4S,5R,6S)-N-(3-fluoro-4-(trifluoromethyl)phenyl)-6-hydroxy-4-(1-methyl-3-(trifluoromethyl)-1H-pyrazol-4-yl)-8-oxatricyclo[3.2.1.02,4]octane-2-carboxamide]: the IC50 came to 3.1 µM and the Emax is 84%.

With `Cn1cc([C@@]23C[C@]2(C(=O)Nc2ccc(C(F)(F)F)cc2)[C@H]2C[C@H](O)[C@@H]3O2)c(C(F)(F)F)n1` (racemic) [Example 42, rac-(1R,2R,4S,5R,6S)-6-hydroxy-4-(1-methyl-3-(trifluoromethyl)-1H-pyrazol-4-yl)-N-(4-(trifluoromethyl)phenyl)-8-oxatricyclo[3.2.1.02,4]octane-2-carboxamide], the half-maximal inhibitory concentration (IC50) is above 30 µM and the Emax worked out at 46%.

With `Cn1cc([C@@]23C[C@]2(C(=O)Nc2cc(C(F)(F)F)ccn2)[C@H]2C[C@H](O)[C@@H]3O2)c(C(F)(F)F)n1` (racemic) [Example 43, rac-(1R,2R,4S,5R,6S)-6-hydroxy-4-(1-methyl-3-(trifluoromethyl)-1H-pyrazol-4-yl)-N-(4-(trifluoromethyl)pyridin-2-yl)-8-oxatricyclo[3.2.1.02,4]octane-2-carboxamide], the IC50 was above 30 µM and the Emax came out at 49%.

With `Cn1cc([C@@]23C[C@]2(C(=O)Nc2cc(C(F)(F)F)cc(Cl)n2)[C@H]2C[C@H](O)[C@@H]3O2)c(C(F)(F)F)n1` (racemic) [Example 44, rac-(1R,2R,4S,5R,6S)—N-(6-chloro-4-(trifluoromethyl)pyridin-2-yl)-6-hydroxy-4-(1-methyl-3-(trifluoromethyl)-1H-pyrazol-4-yl)-8-oxatricyclo[3.2.1.02,4]octane-2-carboxamide], the IC50 is above 30 µM and the Emax is 37%.

`Cn1cc([C@@]23C[C@]2(C(=O)Nc2cc(C(F)(F)F)c(Cl)cn2)[C@H]2C[C@H](O)[C@@H]3O2)c(C(F)(F)F)n1` (racemic) [Example 45, rac-(1R,2R,4S,5R,6S)—N-(5-chloro-4-(trifluoromethyl)pyridin-2-yl)-6-hydroxy-4-(1-methyl-3-(trifluoromethyl)-1H-pyrazol-4-yl)-8-oxatricyclo[3.2.1.02,4]octane-2-carboxamide]: the IC50 is above 30 µM and the Emax was 46%.

Regarding `Cn1cc([C@@]23C[C@]2(C(=O)Nc2cc(C(F)(F)F)cc(C4CC4)n2)[C@H]2C[C@H](O)[C@@H]3O2)c(C(F)(F)F)n1` (racemic) [Example 46, rac-(1R,2R,4S,5R,6S)—N-(6-cyclopropyl-4-(trifluoromethyl)pyridin-2-yl)-6-hydroxy-4-(1-methyl-3-(trifluoromethyl)-1H-pyrazol-4-yl)-8-oxatricyclo[3.2.1.02,4]octane-2-carboxamide], the concentration for half-maximal inhibition (IC50) came out at 27 µM and the Emax was found to be 82%.

Take `Cc1cc(C(F)(F)F)cc(NC(=O)[C@]23C[C@@]2(c2cn(C)nc2C(F)(F)F)[C@H]2O[C@@H]3C[C@@H]2O)n1` (racemic) [Example 47, rac-(1R,2R,4S,5R,6S)-6-hydroxy-4-(1-methyl-3-(trifluoromethyl)-1H-pyrazol-4-yl)-N-(6-methyl-4-(trifluoromethyl)pyridin-2-yl)-8-oxatricyclo[3.2.1.02,4]octane-2-carboxamide]: the 50% inhibitory concentration (IC50) was above 30 µM and the Emax amounted to 36%.

Take `CCOc1cc(C(F)(F)F)cc(NC(=O)[C@]23C[C@@]2(c2cn(C)nc2C(F)(F)F)[C@H]2O[C@@H]3C[C@@H]2O)n1` (racemic) [Example 48, rac-(1R,2R,4S,5R,6S)—N-(6-ethoxy-4-(trifluoromethyl)pyridin-2-yl)-6-hydroxy-4-(1-methyl-3-(trifluoromethyl)-1H-pyrazol-4-yl)-8-oxatricyclo[3.2.1.02,4]octane-2-carboxamide]: the IC50 was above 30 µM and the Emax came out at 40%.
